Tests used:
[1] = Fluorescence property measurement; type: physicochemical
Protocol: All reactions were performed in oven-dried glassware under a positive pressure of nitrogen. Unless otherwise noted, starting materials and solvents were purchased from Aldrich and Acros Organics and used without further purification. Analytical TLC was carried out on Merck 60 F254 silica gel plate (0.25 mm layer thickness) and visualization was done with UV light. Column chromatography was performed on Merck 60 silica gel (230-400 mesh). NMR spectra were recorded on a Bruker Avance 300 NMR spectrometer. Chemical shifts are reported as δ in units of parts per million (ppm) and coupling constants are reported as a J value in Hertz (Hz). Mass of all the compounds was determined by LC-MS of Agilent Technologies with an electrospray ionization source. All fluorescence assays were performed with a Gemini XS fluorescence plate reader.
10 μM solutions in DMSO were prepared and the absorption and emission of library compounds was measured. FIG. 3 is a representative absorbance and fluorescence spectrum.

mixture of mESC and MEF = assay: Enrichment of mESC from mESC/MEF mixture using FACS and fluorescence microscopy; type: cell-based, mouse; conditions: for mESC enrichment / sorting from mixed-cell population: FACS, mESC and MEF in same dish; for selective staining of ESC versus MEF feeder: live mESC cultured on MEF feeder, fluorescence microscopy
Protocol: To confirm the secondary screening data, a mixture of mESC and MEF was incubated with […]. The cell mixture was sorted using Fluorescence-Activated Cell Sorting (FACS).
(§1) MEFs and mESCs were cultured in 60 mm culture dish for 1 hour in the presence of 2 μM of hit compounds, including CDg4. The cells were harvested by trypsin treatment, washed with PBS and resuspended in PBS. The fluorescence intensity of the cells was measured on Flow Cytometry (BD™ LSR II) with FITC ([…], emission at 560 nm). The dot plot images for each cell type were overlaid using FlowJo7 (Three Star Inc.) For FACS MEF and mESC were cultured in a same dish and the sample was prepared as described above for flow cytometry. The cells gated into SSClow CDgreen4 bright and SSChigh CDgreen4 dim regions were collected using a FACS machine (BD FACSAria™).

[2] = system: induced pluripotent stem cell (iPSC); assay: Staining and FACS isolation of induced pluripotent stem cells; type: cell-based, mouse; conditions: iPSC from MEF of Oct4-GFP transgenic mice
Protocol: The iPS cells were maintained in mESC culture medium which was changed every day until designated time point. 4 dpi iPS was incubated with 2 μM of CDg4 for 1 hr at 37° C. The cells were harvested by trypsin treatment, washed with PBS and resuspended in PBS. The cells gated into SSClow CDg4 bright (R2) and SSChigh CDg4 dim (R1) regions were collected using a FACS machine (BD FACSAria™).
CDg4 was applied to induced pluripotent stem cell (iPSC) which was generated from MEF of transgenic mice that express GFP under the control of Oct4 (also known as Pou5f1) promoter. […] FACS was used to isolate early iPS cell population stained by CDg4. (FIG. 2). Isolation of the early iPS cell population will facilitate gene profiling using DNA microarray of this cell population. While gene expression profiling for mixture populations or using cell lines are reported, with lack of direct marker or probes for early iPS, it was not possible to study with purified early iPS.
The retroviral packaging cell, PlatE cell, was maintained in DMEM containing 10% FBS, 100 U/ml penicillin, 100 μg/ml streptomycin, 10 μg/ml blasticidin 5 and 1 μg/ml puromycin. […]

mESC and MEF = assay: Secondary screening by flow cytometry (mESC and MEF incubated separately); type: cell-based, mouse; conditions: 2 μM, 1 hour
Protocol: To evaluate the application of chalcone derivatives as ESC-selective probes, 320 chalcone compounds were screened in mouse ESC (mESC) and mouse embryonic fibroblast (MEF) feeder cells prepared on 384-well cell culture microplates. From the image-based primary screening, 8 compounds that stained mESC consistently with stronger intensity than MEF were selected. For the secondary screening, mESC and MEF were incubated separately with each of the hit compounds and subsequently analyzed using flow cytometry.
as §1

- λem [1]: 560 nm
- λex [1]: 430 nm
SMILES: C=CC(=O)Nc1ccc(C(=O)/C=C/c2ccc(N(C)CCO)cc2)cc1 [CDg4]
- mESC enrichment / sorting from mixed-cell population (mixture of mESC and MEF): selective sorting and isolation from mixture of Feeder cells even up to day 5
- mESC enrichment / sorting from mixed-cell population (mixture of mESC and MEF; listed as CD4): can be used for mESC enrichment from a mixed-cell population
- selective staining of ESC versus MEF feeder (mixture of mESC and MEF): much more brightly stained by CDg4 than MEF
- selective staining of ESC versus MEF feeder (mixture of mESC and MEF; listed as CDgreen4): selectively stains embryonic stem cells (ESC) and iPSC in a feeder cell-based culture system
- staining of iPSC colony [2]: selectively stained the iPSC colony
- selectivity for mESCs (side scatter and fluorescence intensity dot plot overlay of mESC and MEF) (mESC and MEF): most selective for mESCs among the 8 hit compounds
